Measured values reported in PMC5748833, “Synthesis and Biological Evaluation of Novel Hybrid Molecules Containing Purine, Coumarin and Isoxazoline or Isoxazole Moieties” (The Open Medicinal Chemistry Journal, 2017).
Values joined by “and” are separate entries in the source; they are usually repeats but may differ in a detail not shown here. Equal values may be shown once.

Tests used:
[1] = Reducing activity of the stable radical DPPH; conditions: 100 μM compound, after 20 min
Method: 2.2.2.1 Determination of the reducing activity of the stable radical 1, 1-diphenyl-picrylhydrazyl (DPPH)
To a solution of DPPH (100μM) in absolute ethanol an equal volume of the compounds dissolved in ethanol was added. As control solution ethanol was used. The concentration of the solutions of the compounds was 100μM. After 20 and 60 min at room temperature the absorbance was recorded at 517 nm (Table 5). NDGA was used as a standard.
The compounds were studied for their antioxidant activity by the use of the stable 2,2-diphenyl-1-picrylhydrazyl radical (DPPH) at concentration 0.1mM after 20 min. […] This purple colour generally disappears in the presence of an antioxidant. The reduction of absorbance is a measure of the free DPPH due to the action of the antioxidant. The antioxidant activity was expressed as the RA% (Reducing Activity). […] Within the group of derivatives 4 the presence of the morpholinyl or piperidinyl rings at position A as well as the carbonyl group at position B, hinder the interaction of the compounds to the free stable radical DPPH.

soybean lipoxygenase = biological target: T1, soybean lipoxygenase (Glycine max, UniProt P08170); experiment: Soybean lipoxygenase inhibition in vitro; assay type: biochemical; conditions: for %LOX @ 100μΜ: 100 μM compound; for inhibition at 100 µM: read-out: %LOX @ 100μΜ; for IC50: read-out: LOX IC50 μΜ
T1 construct: purchased Sigma Chemical, Co. (St. Louis, MO, USA)
T1 sequence (P08170 1-839): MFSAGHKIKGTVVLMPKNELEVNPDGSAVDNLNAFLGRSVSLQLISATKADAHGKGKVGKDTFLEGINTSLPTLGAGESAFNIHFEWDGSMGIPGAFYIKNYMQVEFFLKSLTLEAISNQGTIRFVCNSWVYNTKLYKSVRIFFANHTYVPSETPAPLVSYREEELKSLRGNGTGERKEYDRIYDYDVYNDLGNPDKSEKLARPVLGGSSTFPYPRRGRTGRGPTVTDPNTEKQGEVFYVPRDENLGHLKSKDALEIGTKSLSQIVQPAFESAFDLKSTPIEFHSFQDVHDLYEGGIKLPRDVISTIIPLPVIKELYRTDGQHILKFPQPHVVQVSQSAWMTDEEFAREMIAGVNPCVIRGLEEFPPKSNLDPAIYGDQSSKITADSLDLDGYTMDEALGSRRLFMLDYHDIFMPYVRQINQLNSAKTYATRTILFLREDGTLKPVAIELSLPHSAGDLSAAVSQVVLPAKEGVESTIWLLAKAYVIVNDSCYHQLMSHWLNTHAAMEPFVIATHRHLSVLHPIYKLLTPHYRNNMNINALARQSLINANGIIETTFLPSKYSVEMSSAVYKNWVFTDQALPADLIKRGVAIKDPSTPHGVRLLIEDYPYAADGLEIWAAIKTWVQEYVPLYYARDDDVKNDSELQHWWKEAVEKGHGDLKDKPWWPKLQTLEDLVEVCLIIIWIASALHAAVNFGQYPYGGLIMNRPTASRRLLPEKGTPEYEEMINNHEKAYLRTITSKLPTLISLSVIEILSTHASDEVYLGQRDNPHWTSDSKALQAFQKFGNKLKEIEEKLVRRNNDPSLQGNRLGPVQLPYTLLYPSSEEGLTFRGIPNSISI
Method: 2.2.2.4 Soybean lipoxygenase inhibition study in vitro [14]
In vitro study was evaluated as reported previously. The tested compounds dissolved in ethanol were incubated at room temperature with sodium linoleate (0.1 mM) and 0.2 ml of enzyme solution (1/9 x10^-4 w/v in saline). […] Several concentrations were used for the determination of IC50 values (Table 5).
LO is the key enzyme in leukotriene biosynthesis. Leukotrienes derived from the biotransformation of arachidonic acid catalyzed by 5-lipoxygenase (5-LO), are important inflammatory mediators implicated in several diseases. LOs play a role in membrane lipid peroxidation by forming hydroperoxides in the lipid bilayer. […] Most of the LO inhibitors are antioxidants or free radical scavengers, since lipoxygenation occurs via a carbon-centered radical. The evaluation of the novel coumarin hybrids against soybean lipoxygenase LO was accomplished by the UV-based enzyme assay.

[2] = Inhibition of linoleic acid lipid peroxidation (AAPH); conditions: 100 μM compound, 37°C
Method: 2.2.2.3 Inhibition of linoleic acid lipid peroxidation
Production of conjugated diene hydroperoxide by oxidation of linoleic acid sodium salt in an aqueous solution was monitored at 234 nm. 2,2’-Azobis(2-amidinopropane) dihydrochloride (AAPH) was used as a free radical initiator. 10 μl of the 16 mM linoleic acid sodium salt solution was added to the UV cuvette containing 0.93 ml of 0.05 M phosphate buffer, pH 7.4 prethermostated at 37°C. The oxidation reaction was initiated at 37°C under air by the addition of 50 μl of 40 mM AAPH solution. Oxidation was carried out in the presence of 10 μl of the examined compounds (stock solution in DMSO). In the assay without antioxidant, lipid oxidation was measured in the presence of the same level of DMSO. The rate of oxidation at 37°C was monitored by recording the increase in absorption at 234 nm caused by conjugated diene hydroperoxides (Table 5). Trolox was used as a standard.
Anti-lipid peroxidation activity. The water-soluble azo compound AAPH has been extensively used as a clean and controllable source of thermally produced alkyl peroxyl free radicals, through spontaneous thermal decomposition. […] In the AAPH assay, the highly reactive alkylperoxyl radicals are intercepted mainly by a hydrogen atom transfer (HAT) from the antioxidant.

SMILES	RA% @ 100μΜ (reducing activity, DPPH) [1]	melting point [°C]	%LOX @ 100μΜ (soybean lipoxygenase)	LP % @ 100μΜ (inhibition of lipid peroxidation) [2]	inhibition at 100 µM (soybean lipoxygenase) [%]	IC50 (soybean lipoxygenase)
CC(Cc1ccc(O)c(O)c1)C(C)Cc1ccc(O)c(O)c1 (stereo not drawn) [NDGA, nordihydroguairetic acid, reference compound]	87%					
Cc1cc(=O)oc2ccc(OCC3=NOC(Cn4cnc5c(N6CCCCC6)ncnc54)C3)cc12 (stereo not drawn) [11a, 4-methyl-6-({5-[(6-piperidin-1-yl-9H-purin-9-yl)methyl]-4,5-dihydroisoxazol-3-yl}methoxy)-2H-chromen-2-one]		148 to 150	no	44%		
O=c1ccc2ccc(OCc3cc(Cn4cnc5c(N6CCOCC6)ncnc54)no3)cc2o1 [13f]	no	174 to 175		23%	25	
O=c1ccc2ccc(OCc3cc(Cn4cnc5c(N6CCCC6)ncnc54)no3)cc2o1 [13g]	no	176 to 178		43%		62.5 µM and 62 µM
Cc1cc(=O)oc2cc(OCc3cc(Cn4cnc5c(N6CCOCC6)ncnc54)no3)ccc12 [13d]	no	179 to 180	no	no		
Cc1cc(=O)oc2ccc(OCC3CC(Cn4cnc5c(N6CCCCC6)ncnc54)=NO3)cc12 (stereo not drawn) [4a, 4-methyl-6-({3-[(6-piperidin-1-yl-9H-purin-9-yl)methyl]-4,5-dihydroisoxazol-5-yl}methoxy)-2H-chromen-2-one]		180 to 182		63%	6	
O=c1cc(OCc2cc(Cn3cnc4c(N5CCCCC5)ncnc43)no2)c2ccccc2o1 [13h]	no	161 to 163		86%		55 µM
Cc1cc(=O)oc2cc(OCC3CC(Cn4cnc5c(N6CCOCC6)ncnc54)=NO3)ccc12 (stereo not drawn) [4d]		194 to 196		21%	44.5	
Cc1cc(=O)oc2cc(OCc3cc(Cn4cnc5c(N6CCCCC6)ncnc54)no3)ccc12		165 to 167				
O=c1ccc2ccc(OCc3cc(Cn4cnc5c(N6CCCC6)ncnc54)on3)cc2o1 [15c]	no	172 to 173	9%	43%	9	
O=c1ccc2ccc(OCC3=NOC(n4cnc5c(N6CCCC6)ncnc54)C3)cc2o1 (stereo not drawn)		200 to 202				
Cc1cc(=O)oc2ccc(OC(=O)C3CC(Cn4cnc5c(N6CCOCC6)ncnc54)=NO3)cc12 (stereo not drawn) [4l]	12%	188 to 189		37.5%		61 µM
O=c1ccc2ccc(OCC3=NOC(Cn4cnc5c(N6CCCCC6)ncnc54)C3)cc2o1 (stereo not drawn) [11g]		184 to 185	no	no		
O=c1ccc2ccc(OCc3cc(Cn4cnc5c(N6CCCCC6)ncnc54)on3)cc2o1 [15a, 7-({5-[(6-piperidin-1-yl-9H-purin-9-yl)methyl]isoxazol-3-yl}methoxy)-2H-chromen-2-one]	no	140 to 142				55 µM
O=c1cc(OCC2CC(Cn3cnc4c(N5CCOCC5)ncnc43)=NO2)c2ccccc2o1 (stereo not drawn) [4g]		158 to 160	10%	16%	10	
Cc1cc(=O)oc2ccc(OC(=O)C3CC(Cn4cnc5c(N6CCCC6)ncnc54)=NO3)cc12 (stereo not drawn)		192 to 193				
Cc1cc(=O)oc2cc(OCC3CC(Cn4cnc5c(N6CCCC6)ncnc54)=NO3)ccc12 (stereo not drawn) [4e]		190 to 192	no	65%		
